Reference: ChEMBL document CHEMBL6115002, “Discovery of novel sitolactone derivative leading to PANoptosis and differentiation of acute myeloid leukemia cells” (Eur J Med Chem, 2025)
Calls of active or inactive are those of the source. The rule behind the calls is not given here.

Experiments:
WEHI-3 [1] = assay: Inhibition of colony formation in mouse WEHI-3 cells incubated for 15 days by crystal violet staining based analysis; type: functional, cell-based; details: dose 0.5-1 µM, time 15.0 day
Kasumi 1 [2] = assay: Induction of pyroptosis in human Kasumi 1 cells assessed as effect on cleaved N-GSDMB at 0.6 to 2.5 uM incubated for 24 hrs by Western blotting analysis; type: functional, cell-based; details: dose 0.6-2.5 µM
WEHI-3 [3] = assay: Induction of pyroptosis in mouse WEHI-3 cells assessed as increase in p-RIPK3 level at 0.625 to 5 uM incubated for 72 hrs by Western blotting analysis; type: functional, cell-based; details: dose 0.625-5 µM
Kasumi 1 [4] = assay: Induction of cell cycle arrest in human Kasumi 1 cells assessed as increase in accumulation of cells at S phase at 0.25 uM incubated for 24 hrs by propidium iodide staining based flow cytometric analysis (reference value: 39.77%); type: functional
NCI-H460 [5] = assay: Inhibition of tumor sphere formation in human NCI-H460 cells incubated for 24 hrs; type: functional, cell-based
WEHI-3 [6] = assay: Induction of pyroptosis in mouse WEHI-3 cells assessed as increase in p-MLKL level at 0.625 to 5 uM incubated for 72 hrs by Western blotting analysis; type: functional, cell-based; details: dose 0.625-5 µM
HCT-15 = assay: Antiproliferative activity against human HCT-15 cells assessed as inhibition of cell proliferation incubated for 72 hrs by CCK-8 assay; type: functional, cell-based; details: HCT-15, 72 h
Kasumi 1 [7] = assay: Antiproliferative activity against human Kasumi 1 cells assessed as inhibition cell proliferation incubated for 72 hrs by MTT assay; type: functional, cell-based; details: Kasumi 1, 72 h
[8] = Induction of cell cycle arrest in mouse WEHI-3 cells assessed as increase in accumulation of cells at G1 phase at 0.25 uM incubated for 24 hrs by propidium iodide staining based flow cytometric analysis (reference value: 46.93%); type: functional
[9] = Induction of cell cycle arrest in mouse WEHI-3 cells assessed as increase in accumulation of cells at G2 phase at 0.5 uM incubated for 24 hrs by propidium iodide staining based flow cytometric analysis (reference value: 1.85%); type: functional
[10] = Induction of cell cycle arrest in mouse WEHI-3 cells assessed as increase in accumulation of cells at G2 phase at 1 uM incubated for 24 hrs by propidium iodide staining based flow cytometric analysis (reference value: 1.85%); type: functional
WEHI-3 [11] = assay: Induction of cell cycle arrest in mouse WEHI-3 cells assessed as increase in P21 level at 0.15 to 1.2 uM incubated for 24 hrs by Western blotting analysis; type: functional, cell-based; details: dose 0.15-1.2 µM
[12] = Antiproliferative activity against mouse WEHI-3 cells assessed as inhibition cell proliferation incubated for 72 hrs by MTT assay; type: functional, cell-based; details: WEHI-3, 72 h
WEHI-3 [13] = assay: Induction of cell differentiation in mouse WEHI-3 cells assessed as lobulated nuclei at 1 uM incubated for 24 hrs by giemsa-Wrights staining based analysis; type: functional
MOLM-13 = assay: Antiproliferative activity against human MOLM-13 cells assessed as inhibition of cell proliferation incubated for 72 hrs by CCK-8 assay; type: functional, cell-based; details: MOLM-13, 72 h
Jurkat = assay: Antiproliferative activity against human Jurkat cells assessed as inhibition of cell proliferation incubated for 72 hrs by CCK-8 assay; type: functional, cell-based
Kasumi 1 [14] = assay: Induction of cell differentiation in human Kasumi 1 cells assessed as increase in CD11B expression by Western blotting analysis; type: functional, cell-based; details: dose 0.25-1 µM
Kasumi 1 [15] = assay: Induction of apoptosis in human Kasumi 1 cells assessed as increase in caspase-3 level incubated for 72 hrs by Western blotting analysis; type: functional, cell-based; details: dose 0.625-5 µM
Z-138 = assay: Antiproliferative activity against human Z138 cells assessed as inhibition of cell proliferation incubated for 72 hrs by CCK-8 assay; type: functional, cell-based; details: Z-138, 72 h
[16] = Induction of cell cycle arrest in mouse WEHI-3 cells assessed as increase in accumulation of cells at S phase at 0.25 uM incubated for 24 hrs by propidium iodide staining based flow cytometric analysis (reference value: 51.22%); type: functional
Kasumi 1 [17] = assay: Induction of […] in human Kasumi 1 cells assessed as increase in p-MLKL level at 0.625 to 5 uM incubated for 72 hrs by Western blotting analysis; type: functional, cell-based; details: dose 0.625-5 µM
HCT-116 [18] = assay: Anti-cancer activity against human HCT-116 cells assessed as reduction in size of spheroids incubated for 24 hrs; type: functional, cell-based
[19] = Toxicity in Balb/c mouse implanted with mouse WEHI-3 cells assessed as separation between white and red pulp area in spleen at 100 to 200 mg/kg, po administered (4aR,6aS,7S,9aS,9bS)-2-(((S)-2-(hydroxymethyl)pyrrolidin-1-yl)methyl)-6a-methyl7 ((triisopropylsilyl)oxy)decahydrocyclopenta[f]chromen-3(2H)-one as prodrug once daily and measured after 15 days; type: organism-based; details: in vivo, 360 h, dose 100-200 mg/kg, time 15 day
WEHI-3 [20] = assay: PANoptosis in mouse WEHI-3 cells assessed as cell death at 1.2 uM incubated for 72 hrs by optical microscopic analysis; type: functional, cell-based
NCI-H460 [21] = assay: Antiproliferative activity against human NCI-H460 cells assessed as inhibition of cell proliferation incubated for 72 hrs by CCK-8 assay; type: functional, cell-based; details: NCI-H460, 72 h
PC-3 = assay: Antiproliferative activity against human PC-3 cells assessed as inhibition of cell proliferation incubated for 72 hrs by CCK-8 assay; type: functional, cell-based; details: PC-3, 72 h
Kasumi 1 [22] = assay: Induction of cell cycle arrest in human Kasumi 1 cells assessed as increase in accumulation of cells at G2 phase at 0.5 uM incubated for 24 hrs by propidium iodide staining based flow cytometric analysis (reference value: 9.82%); type: functional
[23] = Induction of cell cycle arrest in mouse WEHI-3 cells assessed as increase in accumulation of cells at G1 phase at 0.5 uM incubated for 24 hrs by propidium iodide staining based flow cytometric analysis (reference value: 46.93%); type: functional
[24] = Permeability of compound in human Caco-2 cells; type: ADME, cell-based
WEHI-3 [25] = assay: Induction of apoptosis in mouse WEHI-3 cells assessed as increase in caspase-3 level incubated for 72 hrs by Western blotting analysis; type: functional, cell-based; details: dose 0.625-5 µM
Kasumi 1 [26] = assay: Induction of cell cycle arrest in human Kasumi 1 cells assessed as increase in accumulation of cells at G2 phase at 0.25 uM incubated for 24 hrs by propidium iodide staining based flow cytometric analysis (reference value: 9.82%); type: functional
Kasumi 1 [27] = assay: Induction of cell cycle arrest in human Kasumi 1 cells assessed as increase in P21 level at 0.15 to 1.2 uM incubated for 24 hrs by Western blotting analysis; type: functional, cell-based; details: dose 0.15-1.2 µM
Kasumi 1 [28] = assay: Induction of cell cycle arrest in human Kasumi 1 cells assessed as increase in accumulation of cells at G1 phase at 1 uM incubated for 24 hrs by propidium iodide staining based flow cytometric analysis (reference value: 50.41%); type: functional
HCT-116 [29] = assay: Anti-cancer activity against human HCT-116 cells assessed as reduction in number of spheroids incubated for 24 hrs; type: functional, cell-based
Kasumi 1 [30] = assay: Induction of cell cycle arrest in human Kasumi 1 cells assessed as increase in accumulation of cells at G1 phase at 0.25 uM incubated for 24 hrs by propidium iodide staining based flow cytometric analysis (reference value: 50.41%); type: functional
WEHI-3 [31] = assay: Induction of pyroptosis in mouse WEHI-3 cells assessed as effect on cleaved N-GSDMB at 0.6 to 2.5 uM incubated for 24 hrs by Western blotting analysis; type: functional, cell-based; details: dose 0.6-2.5 µM
SW1990 = assay: Antiproliferative activity against human SW1990 cells assessed as inhibition of cell proliferation incubated for 72 hrs by CCK-8 assay; type: functional, cell-based; details: SW1990, 72 h

C=C1C[C@@H]2[C@@H](CC[C@]3(C)[C@@H](O[Si](C(C)C)(C(C)C)C(C)C)CC[C@@H]23)OC1=O
inhibition (WEHI-3 [1]): Dose-dependent-effect | Activity (Kasumi 1 [2]): Active | Activity (WEHI-3 [3]): Active | Activity (Kasumi 1 [4]): 36.36% | inhibition (NCI-H460 [5]): Active | Activity (WEHI-3 [6]): Active | IC50 (HCT-15): 8900 nM | IC50 (Kasumi 1 [7]): 570 nM | Activity [8]: 51.78% | Activity [9]: 3.33% | Activity [10]: 3.39% | Activity (WEHI-3 [11]): Active | IC50 [12]: 420 nM | Activity (WEHI-3 [13]): Active | IC50 (MOLM-13): 1530 nM | IC50 (Jurkat): 2600 nM | Activity (Kasumi 1 [14]): Dose-dependent-effect | Activity (Kasumi 1 [15]): Dose-dependent-effect | IC50 (Z-138): 1880 nM | Activity [16]: 46.46% | Activity (Kasumi 1 [17]): Active | Activity (HCT-116 [18]): Active | Activity [19]: Non-toxic | Activity (WEHI-3 [20]): Active | IC50 (NCI-H460 [21]): 2820 nM | IC50 (PC-3): 2090 nM | Activity (Kasumi 1 [22]): 14.84% | Activity [23]: 53.15% | permeability [24]: Permeable | Activity (WEHI-3 [25]): Dose-dependent-effect | Activity (Kasumi 1 [26]): 10.77% | Activity (Kasumi 1 [27]): Active | Activity (Kasumi 1 [28]): 58.52% | Activity (HCT-116 [29]): Active | Activity (Kasumi 1 [30]): 52.67% | Activity (WEHI-3 [31]): Active | IC50 (SW1990): > 10000 nM
